Data: publication PMC3639963, “A New Class of Small Molecule Inhibitor of BMP Signaling” (PLoS ONE, 2013)

How the values were obtained:
Test in all cases: Nanosyn kinase profiling
Format in all cases: biochemical
Settings in all cases: read-out: Percentage inhibition; for inhibition at 0.1 µM: 0.1 µM inhibitor; for inhibition at 1 µM: 1 µM inhibitor
[1] = target: T1, CDK5/p35 (Homo sapiens, UniProt Q00535)
T1 construct: purchased Nanosyn (enzymatic panel); SGC in-house recombinant human kinases (DSF panel); Invitrogen (ALK1-6)
Method in brief: (§1)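 Percent inhibition of each kinase was measured with the inhibitor at 0.1 µM and at 1 µM, as part of a 200-kinase human selectivity panel.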

[2] = target: T2, ERBB4 (Homo sapiens, UniProt Q15303)
T2 construct: purchased Nanosyn (enzymatic panel); SGC in-house recombinant human kinases (DSF panel); Invitrogen (ALK1-6)
Method in brief: as §1

[3] = target: T3, JAK1 (Homo sapiens, UniProt P23458)
T3 construct: purchased Nanosyn (enzymatic panel); SGC in-house recombinant human kinases (DSF panel); Invitrogen (ALK1-6)
Method in brief: as §1

[4] = target: T4, LYNB (Homo sapiens, UniProt P07948)
T4 construct: purchased Nanosyn (enzymatic panel); SGC in-house recombinant human kinases (DSF panel); Invitrogen (ALK1-6)
Method in brief: as §1

[5] = target: T5, MRCKα (Homo sapiens, UniProt Q5VT25)
T5 construct: purchased Nanosyn (enzymatic panel); SGC in-house recombinant human kinases (DSF panel); Invitrogen (ALK1-6)
Method in brief: as §1

[6] = target: T6, MRCKβ (Homo sapiens, UniProt Q9Y5S2)
T6 construct: purchased Nanosyn (enzymatic panel); SGC in-house recombinant human kinases (DSF panel); Invitrogen (ALK1-6)
Method in brief: as §1

[7] = target: T7, MST2 (Homo sapiens, UniProt Q13188)
T7 construct: purchased Nanosyn (enzymatic panel); SGC in-house recombinant human kinases (DSF panel); Invitrogen (ALK1-6)
T7 sequence (Q13188 1-491): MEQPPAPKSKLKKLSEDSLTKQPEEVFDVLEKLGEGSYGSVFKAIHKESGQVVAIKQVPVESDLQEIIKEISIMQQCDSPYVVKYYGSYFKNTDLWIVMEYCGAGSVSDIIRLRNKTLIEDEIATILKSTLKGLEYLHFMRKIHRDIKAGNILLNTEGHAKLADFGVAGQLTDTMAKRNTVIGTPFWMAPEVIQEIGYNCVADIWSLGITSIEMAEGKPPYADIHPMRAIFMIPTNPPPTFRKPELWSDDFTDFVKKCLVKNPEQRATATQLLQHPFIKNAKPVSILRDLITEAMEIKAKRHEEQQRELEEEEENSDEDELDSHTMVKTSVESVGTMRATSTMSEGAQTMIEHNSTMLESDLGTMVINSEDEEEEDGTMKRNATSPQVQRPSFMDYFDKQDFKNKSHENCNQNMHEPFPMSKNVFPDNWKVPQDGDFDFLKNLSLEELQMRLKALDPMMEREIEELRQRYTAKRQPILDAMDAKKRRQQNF
Method in brief: as §1

[8] = target: T8, PDGFRβ (Homo sapiens, UniProt P09619)
T8 construct: purchased Nanosyn (enzymatic panel); SGC in-house recombinant human kinases (DSF panel); Invitrogen (ALK1-6)
Method in brief: as §1

[9] = target: T9, PKCα (Homo sapiens, UniProt P17252)
T9 construct: purchased Nanosyn (enzymatic panel); SGC in-house recombinant human kinases (DSF panel); Invitrogen (ALK1-6)
Method in brief: as §1

[10] = target: T10, PRKG1 (Homo sapiens, UniProt Q13976)
T10 construct: purchased Nanosyn (enzymatic panel); SGC in-house recombinant human kinases (DSF panel); Invitrogen (ALK1-6)
T10 sequence (Q13976 1-671): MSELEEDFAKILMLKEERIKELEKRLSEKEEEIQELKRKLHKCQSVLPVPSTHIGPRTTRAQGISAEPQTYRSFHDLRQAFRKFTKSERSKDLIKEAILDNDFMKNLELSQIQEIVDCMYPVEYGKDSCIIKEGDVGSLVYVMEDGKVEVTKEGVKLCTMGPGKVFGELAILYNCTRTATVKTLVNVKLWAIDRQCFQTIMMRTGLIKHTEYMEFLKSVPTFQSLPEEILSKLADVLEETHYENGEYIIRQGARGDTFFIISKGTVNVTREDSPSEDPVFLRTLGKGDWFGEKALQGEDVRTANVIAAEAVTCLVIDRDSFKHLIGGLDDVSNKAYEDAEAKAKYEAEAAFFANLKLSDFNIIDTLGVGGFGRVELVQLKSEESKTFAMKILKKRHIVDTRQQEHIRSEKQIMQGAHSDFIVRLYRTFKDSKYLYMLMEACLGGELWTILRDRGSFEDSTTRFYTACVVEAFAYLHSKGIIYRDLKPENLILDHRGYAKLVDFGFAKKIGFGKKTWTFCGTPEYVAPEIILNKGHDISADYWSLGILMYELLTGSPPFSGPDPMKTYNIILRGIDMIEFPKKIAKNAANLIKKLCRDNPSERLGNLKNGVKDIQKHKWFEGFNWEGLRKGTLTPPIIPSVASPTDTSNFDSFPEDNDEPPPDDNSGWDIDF
Method in brief: as §1

[11] = target: T11, RON (Homo sapiens, UniProt Q04912)
T11 construct: purchased Nanosyn (enzymatic panel); SGC in-house recombinant human kinases (DSF panel); Invitrogen (ALK1-6)
Method in brief: as §1

[12] = target: T12, RSK1 (Homo sapiens, UniProt Q15418)
T12 construct: purchased Nanosyn (enzymatic panel); SGC in-house recombinant human kinases (DSF panel); Invitrogen (ALK1-6)
Method in brief: as §1

[13] = target: T13, TBK1 (Homo sapiens, UniProt Q9UHD2)
T13 construct: purchased Nanosyn (enzymatic panel); SGC in-house recombinant human kinases (DSF panel); Invitrogen (ALK1-6)
T13 sequence (Q9UHD2 1-729): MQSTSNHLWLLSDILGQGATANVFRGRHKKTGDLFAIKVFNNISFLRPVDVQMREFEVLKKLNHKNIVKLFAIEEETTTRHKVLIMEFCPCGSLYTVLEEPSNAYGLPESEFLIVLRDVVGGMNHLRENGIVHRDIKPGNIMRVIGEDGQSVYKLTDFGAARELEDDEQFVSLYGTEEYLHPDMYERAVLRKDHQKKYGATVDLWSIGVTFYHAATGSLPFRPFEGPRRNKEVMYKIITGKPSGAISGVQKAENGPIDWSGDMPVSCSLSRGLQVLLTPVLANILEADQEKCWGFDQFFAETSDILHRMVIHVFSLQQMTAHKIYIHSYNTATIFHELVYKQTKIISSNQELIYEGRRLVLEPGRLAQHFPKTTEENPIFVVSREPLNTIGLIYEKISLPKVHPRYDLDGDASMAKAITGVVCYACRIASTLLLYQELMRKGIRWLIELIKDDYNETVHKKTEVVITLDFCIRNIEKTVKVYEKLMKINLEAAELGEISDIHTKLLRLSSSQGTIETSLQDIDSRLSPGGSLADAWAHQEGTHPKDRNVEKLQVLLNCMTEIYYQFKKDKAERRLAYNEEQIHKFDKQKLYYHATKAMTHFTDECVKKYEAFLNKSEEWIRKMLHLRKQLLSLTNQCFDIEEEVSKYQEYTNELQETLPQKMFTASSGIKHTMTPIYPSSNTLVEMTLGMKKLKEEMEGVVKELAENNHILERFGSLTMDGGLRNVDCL
Method in brief: as §1

T4 sequence (P07948 1-491 isoform P07948-2): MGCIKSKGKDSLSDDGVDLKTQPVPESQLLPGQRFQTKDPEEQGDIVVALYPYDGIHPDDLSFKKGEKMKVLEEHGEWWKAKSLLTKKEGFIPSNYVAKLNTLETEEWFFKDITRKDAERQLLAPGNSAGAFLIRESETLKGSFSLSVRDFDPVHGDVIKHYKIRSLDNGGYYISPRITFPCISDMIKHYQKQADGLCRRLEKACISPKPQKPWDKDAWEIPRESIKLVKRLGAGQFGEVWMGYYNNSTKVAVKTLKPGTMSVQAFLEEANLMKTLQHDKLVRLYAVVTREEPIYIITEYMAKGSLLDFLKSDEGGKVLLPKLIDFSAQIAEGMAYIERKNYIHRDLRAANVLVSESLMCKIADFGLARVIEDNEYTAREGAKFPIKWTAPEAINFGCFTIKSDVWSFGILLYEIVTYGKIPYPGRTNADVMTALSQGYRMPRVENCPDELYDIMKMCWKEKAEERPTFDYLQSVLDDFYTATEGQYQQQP
T11 sequence (Q04912 25-1400): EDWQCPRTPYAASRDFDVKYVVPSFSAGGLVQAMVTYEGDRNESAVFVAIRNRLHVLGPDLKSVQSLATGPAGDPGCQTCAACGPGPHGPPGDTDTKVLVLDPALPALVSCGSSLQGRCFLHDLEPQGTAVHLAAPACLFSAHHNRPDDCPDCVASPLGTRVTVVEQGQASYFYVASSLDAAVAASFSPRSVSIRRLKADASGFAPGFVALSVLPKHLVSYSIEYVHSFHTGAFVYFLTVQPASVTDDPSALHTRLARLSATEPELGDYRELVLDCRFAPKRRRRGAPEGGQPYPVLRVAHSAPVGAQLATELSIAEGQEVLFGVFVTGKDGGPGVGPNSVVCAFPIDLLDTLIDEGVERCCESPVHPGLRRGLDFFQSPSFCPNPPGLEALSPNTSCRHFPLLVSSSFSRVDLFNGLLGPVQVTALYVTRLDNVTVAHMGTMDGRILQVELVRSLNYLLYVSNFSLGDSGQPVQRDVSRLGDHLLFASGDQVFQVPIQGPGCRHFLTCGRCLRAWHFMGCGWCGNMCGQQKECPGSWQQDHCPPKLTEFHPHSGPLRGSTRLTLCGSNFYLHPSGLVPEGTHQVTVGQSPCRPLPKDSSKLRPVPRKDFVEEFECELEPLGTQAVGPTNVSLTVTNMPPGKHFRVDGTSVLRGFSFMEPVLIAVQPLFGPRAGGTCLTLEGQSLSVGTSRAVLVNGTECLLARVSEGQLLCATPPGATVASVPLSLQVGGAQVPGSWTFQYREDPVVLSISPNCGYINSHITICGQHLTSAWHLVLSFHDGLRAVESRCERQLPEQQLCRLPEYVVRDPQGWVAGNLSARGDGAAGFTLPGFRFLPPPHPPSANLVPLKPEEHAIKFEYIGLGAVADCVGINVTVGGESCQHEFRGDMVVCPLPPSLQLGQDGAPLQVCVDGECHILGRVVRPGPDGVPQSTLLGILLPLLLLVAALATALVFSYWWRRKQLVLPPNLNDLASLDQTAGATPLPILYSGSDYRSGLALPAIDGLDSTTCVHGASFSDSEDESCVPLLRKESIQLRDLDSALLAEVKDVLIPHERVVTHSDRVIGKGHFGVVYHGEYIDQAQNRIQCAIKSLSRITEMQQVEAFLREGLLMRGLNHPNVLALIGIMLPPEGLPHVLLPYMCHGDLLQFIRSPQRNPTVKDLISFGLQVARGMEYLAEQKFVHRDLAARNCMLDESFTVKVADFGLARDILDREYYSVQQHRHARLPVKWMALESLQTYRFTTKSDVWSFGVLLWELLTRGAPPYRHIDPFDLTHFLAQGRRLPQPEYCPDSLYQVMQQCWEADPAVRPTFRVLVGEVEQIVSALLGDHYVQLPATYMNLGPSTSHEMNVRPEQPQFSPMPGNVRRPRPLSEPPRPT
T8 sequence (P09619 33-1106): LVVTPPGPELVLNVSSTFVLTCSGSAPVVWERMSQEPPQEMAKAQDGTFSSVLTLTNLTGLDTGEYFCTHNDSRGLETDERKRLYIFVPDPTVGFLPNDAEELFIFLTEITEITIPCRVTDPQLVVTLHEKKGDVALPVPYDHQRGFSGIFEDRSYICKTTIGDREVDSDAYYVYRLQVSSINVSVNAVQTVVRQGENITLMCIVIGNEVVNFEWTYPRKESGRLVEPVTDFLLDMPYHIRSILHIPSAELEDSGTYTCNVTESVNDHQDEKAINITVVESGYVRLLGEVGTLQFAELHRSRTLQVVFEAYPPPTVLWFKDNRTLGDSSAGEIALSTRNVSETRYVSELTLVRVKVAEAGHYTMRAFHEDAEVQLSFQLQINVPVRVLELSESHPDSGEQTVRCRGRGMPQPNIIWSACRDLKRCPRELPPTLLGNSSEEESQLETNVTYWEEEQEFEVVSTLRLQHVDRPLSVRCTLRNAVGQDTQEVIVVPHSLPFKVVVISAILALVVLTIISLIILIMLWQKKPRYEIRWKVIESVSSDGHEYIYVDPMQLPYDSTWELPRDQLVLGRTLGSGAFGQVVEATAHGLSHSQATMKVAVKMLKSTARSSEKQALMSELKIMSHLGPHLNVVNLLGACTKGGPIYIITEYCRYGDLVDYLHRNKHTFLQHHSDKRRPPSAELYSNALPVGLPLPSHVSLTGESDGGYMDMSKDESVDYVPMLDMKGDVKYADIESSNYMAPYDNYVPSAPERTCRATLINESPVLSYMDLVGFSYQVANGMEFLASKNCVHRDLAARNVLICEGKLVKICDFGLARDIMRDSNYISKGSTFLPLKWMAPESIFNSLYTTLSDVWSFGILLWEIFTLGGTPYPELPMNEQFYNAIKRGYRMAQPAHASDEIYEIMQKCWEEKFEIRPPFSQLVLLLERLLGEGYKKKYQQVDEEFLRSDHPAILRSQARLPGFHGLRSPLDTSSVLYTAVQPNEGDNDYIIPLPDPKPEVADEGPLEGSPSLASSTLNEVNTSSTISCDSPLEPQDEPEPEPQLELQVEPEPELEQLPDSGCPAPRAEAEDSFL
T3 sequence (P23458 whole entry): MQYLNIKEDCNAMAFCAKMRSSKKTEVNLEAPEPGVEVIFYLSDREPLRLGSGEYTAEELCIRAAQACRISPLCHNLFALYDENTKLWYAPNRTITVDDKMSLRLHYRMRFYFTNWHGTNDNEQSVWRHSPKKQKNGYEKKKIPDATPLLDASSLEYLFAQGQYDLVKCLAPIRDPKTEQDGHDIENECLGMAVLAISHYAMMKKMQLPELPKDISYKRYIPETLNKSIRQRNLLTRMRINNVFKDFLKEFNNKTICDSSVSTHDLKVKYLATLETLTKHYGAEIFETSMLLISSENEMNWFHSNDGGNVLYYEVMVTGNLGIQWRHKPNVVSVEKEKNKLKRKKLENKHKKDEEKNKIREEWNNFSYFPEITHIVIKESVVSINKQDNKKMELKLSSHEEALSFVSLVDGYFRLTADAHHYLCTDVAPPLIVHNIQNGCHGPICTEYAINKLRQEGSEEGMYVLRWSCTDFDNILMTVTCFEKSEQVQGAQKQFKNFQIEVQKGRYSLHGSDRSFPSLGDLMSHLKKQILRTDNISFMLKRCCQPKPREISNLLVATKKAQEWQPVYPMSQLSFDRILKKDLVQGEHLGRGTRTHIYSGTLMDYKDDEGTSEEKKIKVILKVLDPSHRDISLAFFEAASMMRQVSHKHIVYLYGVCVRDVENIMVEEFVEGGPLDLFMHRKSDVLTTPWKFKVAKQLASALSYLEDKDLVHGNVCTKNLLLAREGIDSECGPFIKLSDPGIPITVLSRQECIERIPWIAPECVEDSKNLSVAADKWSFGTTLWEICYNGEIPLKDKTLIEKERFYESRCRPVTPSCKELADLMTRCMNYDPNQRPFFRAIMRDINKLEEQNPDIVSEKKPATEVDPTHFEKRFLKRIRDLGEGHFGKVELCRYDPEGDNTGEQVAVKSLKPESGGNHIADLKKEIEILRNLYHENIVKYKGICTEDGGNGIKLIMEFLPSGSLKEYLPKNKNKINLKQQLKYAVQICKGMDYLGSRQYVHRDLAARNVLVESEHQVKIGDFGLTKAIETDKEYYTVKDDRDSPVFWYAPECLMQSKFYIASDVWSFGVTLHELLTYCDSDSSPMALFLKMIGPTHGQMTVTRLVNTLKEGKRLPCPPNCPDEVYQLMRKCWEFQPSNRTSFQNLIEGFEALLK

Compound	inhibition at 0.1 µM [1]	inhibition at 1 µM [1]	inhibition at 0.1 µM [2]	inhibition at 1 µM [2]	inhibition at 0.1 µM [3]	inhibition at 1 µM [3]	inhibition at 0.1 µM [4]	inhibition at 1 µM [4]	inhibition at 0.1 µM [5]	inhibition at 1 µM [5]	inhibition at 0.1 µM [6]	inhibition at 1 µM [6]	inhibition at 0.1 µM [7]	inhibition at 1 µM [7]	inhibition at 0.1 µM [8]	inhibition at 1 µM [8]	inhibition at 0.1 µM [9]	inhibition at 1 µM [9]	inhibition at 0.1 µM [10]	inhibition at 1 µM [10]	further results
COc1cc(-c2cc(-c3cccc(O)c3)cnc2N)cc(OC)c1OC [K02288, 3-[6-amino-5-(3,4,5-trimethoxy-phenyl)-pyridin-3-yl]-phenol]	0.3%	1.9%	-5%	0.9%	0%	0.4%	6%	43%	2%	6.9%	0.6%	2%	-2%	-1%	7.7%	43%	0.2%	2.2%	0.3%	3.3%	inhibition at 0.1 µM [11]: 3%; inhibition at 1 µM [11]: -1%; inhibition at 0.1 µM [12]: 0.8%; inhibition at 1 µM [12]: 1.8%; inhibition at 0.1 µM [13]: 1.5%; inhibition at 1 µM [13]: 3.7%
c1ccc2c(-c3cnn4cc(-c5ccc(N6CCNCC6)cc5)cnc34)ccnc2c1 [LDN-193189]	1.4%	8.5%	6.1%	11%	2.7%	4.2%	7.4%	34%	0.8%	6.8%	0%	2.1%	5.1%	6%	39%	75%	1%	1.1%	1%	1.2%	inhibition at 0.1 µM [11]: -2%; inhibition at 1 µM [11]: 12%; inhibition at 0.1 µM [12]: 0.6%; inhibition at 1 µM [12]: 8%; inhibition at 0.1 µM [13]: 4.5%; inhibition at 1 µM [13]: 16%
